We go through twelve molecules from ChEMBL document CHEMBL1201862, “PubChem BioAssay data set” (2004).

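Cultured in 96-well plates, cells were exposed to test compound for 48 hours across five concentrations. GI50 marks 50% less growth.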 Calls of active or inactive are those of the source. Rule as the data show it: active = GI50 up to about 1.1 µM and inactive = higher. Where a SMILES comes first, the peptide text is derived from it. [ ]: non-standard residue; d: D form. The star is where a group is joined. Bn2Val = CC(C)[C@@H](C(=O)*)N(Cc1ccccc1)Cc1ccccc1; NH(3,4-diMeO-benzyl) = COc1ccc(CN*)cc1OC; NMeV = CN[C@H](C(=O)O)C(C)C

Holding throughout (experiment): NCI anticancer screen, dose series, 48 h
Assay [1] relates to SK-OV-3.
Assay [2] relates to HCT-15.
The subject of assay [3] is CAKI-1.
The test system of assay [4] is A498.
Assay [5] has as its system MDA-MB-435.
Assay [6] concerns HT-29.
Assay [7] relates to LOX IMVI.
For assay [8], the system named is SF-295.
The subject of assay [9] is HCT-116.
The test system of assay [10] is MCF7.
In assay [11] the test system is SNB-19.
Assay [12] concerns RXF 393.
Assay [13] has as its system SF-539.
Assay [14] deals with MDA-N.
Assay [15] has as its system DU-145.
For assay [16], the system named is SK-MEL-2.
Assay [17] relates to MDA-MB-231.
The test system of assay [18] is Malme-3M.
Assay [19] relates to SR.

For the molecule `CN1c2ccccc2S(=O)(=O)n2c(COc3ccc(Cl)cc3)nnc21`, the GI50 in assay [1] was 77.1 µM (inactive); in [2], above 100 µM; in assay [3], 85.7 µM (inactive); in [4], 30.5 µM (inactive); in assay [5], > 100 µM (inactive); in assay [6], > 100 µM (inactive). Besides, the GI50 in assay [7] was > 100 µM (inactive); in [8], 27 µM (inactive); in assay [9] it was > 100 µM (inactive); in assay [10] it was > 100 µM (inactive); in assay [11], 57.4 µM (inactive); in [12], 55.1 µM (inactive). For the same molecule, the GI50 is 35.5 µM (inactive) in assay [13]; > 100 µM (inactive) in assay [14]; > 100 µM (inactive) in assay [15]; > 100 µM (inactive) in assay [16]; 44.8 µM (inactive) in [17].
`COc1ccc(C2C3COc4ccccc4C3=NN2c2ccccc2)cc1` (stereo unspecified): the GI50 in [1] was > 100 µM (inactive); in [2], above 100 µM; in assay [3] it was > 100 µM (inactive); in assay [4], > 100 µM (inactive); in [5] it was 62.4 µM (inactive); in assay [18], > 100 µM (inactive). Moreover, the GI50 in assay [6] was 87.1 µM (inactive); in assay [7], > 100 µM (inactive); in assay [8], > 100 µM (inactive); in assay [9], > 100 µM (inactive); in [19], 31.6 µM (inactive); in [10], 63.8 µM (inactive). The GI50 in [11], in [12], in assay [13], in assay [14], in [16] and in assay [17] was > 100 µM (inactive) throughout.
As for `Cn1nc2ccc([N+](=O)[O-])c(Cn3nnc4ccccc43)c2n1`, the GI50 was > 100 µM (inactive) in assay [1]; above 100 µM in assay [2]; > 100 µM (inactive) in assay [3]; > 100 µM (inactive) in assay [4]; 90.8 µM (inactive) in assay [5]; > 100 µM (inactive) in [18]. For the same molecule, the GI50 in assay [6] is > 100 µM (inactive); in [7] it was 82.8 µM (inactive); in [8], > 100 µM (inactive); in [9], > 100 µM (inactive); in [10], > 100 µM (inactive); in assay [11], > 100 µM (inactive). The GI50 is > 100 µM (inactive) in [12]; > 100 µM (inactive) in assay [13]; 88.3 µM (inactive) in assay [14]; > 100 µM (inactive) in assay [15]; > 100 µM (inactive) in assay [16]; > 100 µM (inactive) in [17].
As to `COc1cc(OC)c(OC)cc1/C=C/c1cnnc2ccccc12`, the GI50 is > 10 µM (inactive) in [1]; above 10 µM in [2]; > 10 µM (inactive) in [3]; > 10 µM (inactive) in assay [4]; 1.84 µM (inactive) in [5]; > 10 µM (inactive) in [18]. For the same molecule, the GI50 in [6] was > 10 µM (inactive); in assay [7], 6.9 µM (inactive); in assay [8] it was > 10 µM (inactive); in [9], > 10 µM (inactive); in [10], 1.68 µM (inactive); in assay [11], > 10 µM (inactive). For the same molecule, the GI50 in assay [12] is > 10 µM (inactive); in [13], > 10 µM (inactive); in assay [14], 4.05 µM (inactive); in [15] it was > 10 µM (inactive); in [16] it was > 10 µM (inactive); in assay [17], > 10 µM (inactive).
For `O=S(=O)(SC1=NCCN1)c1ccc2ccccc2c1`, the GI50 in assay [1] is 22.6 µM (inactive); in assay [2] it was 25.1 µM; in assay [3], 95.1 µM (inactive); in [4], 92.7 µM (inactive); in assay [5], 20.7 µM (inactive); in [18], 72.6 µM (inactive). In addition, the GI50 was 20 µM (inactive) in assay [6]; 31.4 µM (inactive) in assay [7]; 24.8 µM (inactive) in [8]; 22.5 µM (inactive) in assay [9]; 29.4 µM (inactive) in [10]; 20.2 µM (inactive) in assay [11]. For the same molecule, the GI50 in [12] is 24.3 µM (inactive); in [13] it was 23.8 µM (inactive); in assay [14], 19.8 µM (inactive); in assay [15] it was 32 µM (inactive); in assay [16], 24.8 µM (inactive); in [17], 17.2 µM (inactive).
Take `Cc1ccc(Cc2cc(N3CCN(c4cccc(Cl)c4)CC3)nnc2C)cc1`: the GI50 is > 100 µM (inactive) in assay [1]; 63.8 µM in assay [2]; > 100 µM (inactive) in assay [3]; > 100 µM (inactive) in assay [4]; 27.7 µM (inactive) in assay [5]; 31.6 µM (inactive) in assay [6]. For the same molecule, the GI50 in [8] is 42.9 µM (inactive); in assay [9] it was 22.5 µM (inactive); in assay [10] it was 76.2 µM (inactive); in assay [11] it was > 100 µM (inactive); in assay [12] it was 84.7 µM (inactive); in [13] it was 38.1 µM (inactive). Besides, the GI50 in [14] is 16.4 µM (inactive); in assay [15], > 100 µM (inactive); in [16], 96.2 µM (inactive); in assay [17], > 100 µM (inactive).
As for `COc1ccc(NC(=O)/C(=N/NC(N)=S)C2C(=O)NC(=S)NC2=O)c(OC)c1`, the GI50 in assay [1] is > 100 µM (inactive); in assay [2] it was above 100 µM; in [3], > 100 µM (inactive); in assay [4], > 100 µM (inactive); in [5], > 100 µM (inactive); in assay [18], > 100 µM (inactive). Moreover, the GI50 in assay [6], in [7], in assay [8], in assay [9], in [10] and in [11] was > 100 µM (inactive) in each case. Also, the GI50 in assay [13], in assay [14], in [15], in assay [16] and in assay [17] was > 100 µM (inactive) each time.
Take `C=C(CO)[C@H]1CC/C(C)=C/CC/C(C)=C/C/C=C(\C)[C@H](O)C1`: the GI50 in assay [1] is > 100 µM (inactive); in assay [2], 50 µM; in assay [3] it was 31.3 µM (inactive); in assay [5] it was 18.6 µM (inactive); in assay [6], 18.5 µM (inactive); in assay [7] it was 27.5 µM (inactive). The GI50 is 34.8 µM (inactive) in assay [8]; 26.9 µM (inactive) in [9]; 26 µM (inactive) in [10]; 47.4 µM (inactive) in assay [11]; 19.9 µM (inactive) in [12]; 23.5 µM (inactive) in assay [13]. Moreover, the GI50 in [14] was 34.5 µM (inactive); in [15], 49.3 µM (inactive); in assay [16], 22.8 µM (inactive); in assay [17] it was 21.6 µM (inactive).
In the case of `Cc1ccc(Nc2nc3c(=O)n(C)c(=O)n(C)c3nc2Nc2ccc(C)cc2)cc1`, the GI50 in assay [1] is 21.9 µM (inactive); in assay [2], 3.32 µM; in assay [3], 16.4 µM (inactive); in assay [4], 16.5 µM (inactive); in [5], 12.1 µM (inactive); in assay [18] it was 14.9 µM (inactive). In addition, the GI50 was 10.4 µM (inactive) in assay [6]; 10.1 µM (inactive) in [7]; 20.8 µM (inactive) in [8]; 9.27 µM (inactive) in assay [9]; 5.38 µM (inactive) in assay [19]; 31.3 µM (inactive) in assay [11]. The GI50 in [12] was 10.3 µM (inactive); in assay [13], 13.5 µM (inactive); in [14], 11.3 µM (inactive); in assay [15], 32.4 µM (inactive); in assay [16] it was 17.8 µM (inactive); in assay [17], 13.7 µM (inactive).
On to `COc1c(OC)c(O)c2c(=O)c(OC)c(-c3ccc4c(c3)OCO4)oc2c1O`, for which the GI50 was > 100 µM (inactive) in [1]; above 100 µM in [2]; > 100 µM (inactive) in assay [3]; > 100 µM (inactive) in assay [4]; > 100 µM (inactive) in [5]; > 100 µM (inactive) in assay [18]. The GI50 in [6] was 36.1 µM (inactive); in [7], > 100 µM (inactive); in [8], 77.4 µM (inactive); in assay [9] it was 38.6 µM (inactive); in assay [10], > 100 µM (inactive); in assay [11], > 100 µM (inactive). In addition, the GI50 in [12] is 91.4 µM (inactive); in assay [13] it was > 100 µM (inactive); in assay [14], > 100 µM (inactive); in assay [15], > 100 µM (inactive); in [16] it was > 100 µM (inactive); in [17] it was > 100 µM (inactive).
For `CCSCCCN(CCCSCC)CCCSCC`, the GI50 in [1] is > 100 µM (inactive); in [2] it was above 100 µM; in assay [5], > 100 µM (inactive); in assay [6] it was > 100 µM (inactive); in assay [7] it was > 100 µM (inactive); in assay [8], > 100 µM (inactive). For the same molecule, the GI50 in assay [9], in assay [19], in assay [10], in assay [11], in assay [13] and in assay [14] was > 100 µM (inactive) each time. The GI50 in assay [15] and in [17] was > 100 µM (inactive) each time.
With `COc1ccc(CNC(=O)[C@@H]2CCCN2C(=O)[C@@H]2CCCN2C(=O)[C@H](C(C)C)N(C)C(=O)[C@@H](NC(=O)[C@H](C(C)C)N(Cc2ccccc2)Cc2ccccc2)C(C)C)cc1OC` (Bn2Val-V[NMeV]PP-{NH(3,4-diMeO-benzyl)}), the GI50 in assay [1] was 16.9 µM (inactive); in [2] it was 12.1 µM; in assay [3], 15.8 µM (inactive); in assay [4], 17.8 µM (inactive); in assay [5], 12 µM (inactive); in assay [18] it was 25.2 µM (inactive). In addition, the GI50 was 8.3 µM (inactive) in assay [6]; 4.26 µM (inactive) in assay [7]; 15.1 µM (inactive) in [8]; 14.4 µM (inactive) in assay [9]; 4.54 µM (inactive) in [19]; 15.9 µM (inactive) in assay [11]. Also, the GI50 was 11.1 µM (inactive) in assay [12]; 17.1 µM (inactive) in assay [13]; 14.7 µM (inactive) in assay [14]; 14.8 µM (inactive) in assay [15]; 13.4 µM (inactive) in assay [16]; 17.5 µM (inactive) in assay [17].
